Reference: patent US8785631B2, “Oxazolone derivative compounds having a 3-oxa-1-azaspiro[4.5] core” (Seikagaku Corporation, priority 2006, dated 2014)
*1 amine or outer side, *2 acyl side, *3 side chain or, on linkers, in order; H or OH if unused. Where a SMILES comes first, the peptide text is derived from it. [ ]: non-standard residue; d: D form. The star is where a group is joined. Ac6c = NC1(C(=O)O)CCCCC1; Morpholide = C1CN(*)CCO1; Nle = CCCC[C@H](N)C(=O)O; Cbz = O=C(OCc1ccccc1)*; CO = O=C([*:1])[*:2]

What was measured:
[1] = target: T1, Human cathepsin L (Homo sapiens, UniProt P07711); assay: Measurement of cathepsin L inhibitory activity; assay type: biochemical; conditions: selectivity ratio L/K
T1 construct: purchased Calbiochem Corp
T1 sequence (P07711 114-333): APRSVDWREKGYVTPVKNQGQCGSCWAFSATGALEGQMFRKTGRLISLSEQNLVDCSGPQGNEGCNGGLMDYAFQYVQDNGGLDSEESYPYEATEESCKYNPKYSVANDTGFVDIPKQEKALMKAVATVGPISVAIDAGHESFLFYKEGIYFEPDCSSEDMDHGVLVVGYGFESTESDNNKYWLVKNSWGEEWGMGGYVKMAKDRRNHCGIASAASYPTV
Description: (§1) Human cathepsin L (Calbiochem Corp.) was used for measurement. Activity was measured based on decomposition of the fluorescent substrate Z-Phe-Arg-MCA (Peptide Institute, Inc.) in compliance with the method of Barrett, et al.^3). Namely, the decomposition of […] Z-Phe-Arg-MCA by cathepsin L was measured in 100 mM sodium acetate, 5 mM EDTA, 4 mM urea, 8 mM cysteine and 0.005% Brij35 at pH 5.5. The reaction was carried out for 30 minutes at 30° C., and stopped by the addition of 2×10^−5 M Calpeptin. After stopping the reaction, fluorescent intensity was measured at an excitation wavelength of 355 nm and measurement wavelength of 460 nm. Inhibition of cathepsin L by the compounds was examined using the reaction system described above.

[2] = target: T2, Human cathepsin B (Homo sapiens, UniProt P07858); assay: Measurement of cathepsin B inhibitory activity; assay type: biochemical; conditions: selectivity ratio B/K
T2 construct: purchased Calbiochem Corp
Description: as §1, with “B” for “L”, “Z-Arg-Arg-MCA” for “Z-Phe-Arg-MCA”, “potassium phosphate, 1” for “acetate, 5”, “EDTA,” for “EDTA, 4 mM urea,”, “6.0.” for “5.5.”

Compound | L/K (ratio of IC50 cathepsin L to cathepsin K) [1] | B/K (ratio of IC50 cathepsin B to cathepsin K) [2]
CC(C)[C@@H](C=O)NC(=O)C1(NC(=O)OCc2ccccc2)CCCCC1 [Reference Example 144, N-[[1-[[(Phenylmethoxy)carbonyl]amino]cyclohexyl]carbonyl]-L-valinal] (Cbz-[Ac6c]-Val-aldehyde) | 400 | 230
CC(C)[C@@H](C=O)NC(=O)C1(NC(=O)c2ccco2)CCCCC1 [Reference Example 146, N-[[1-[(2-Furanylcarbonyl)amino]cyclohexyl]carbonyl]-L-valinal] | 370 | 87
CCCC[C@@H](C=O)NC(=O)C1(NC(=O)OCc2ccccc2)CCCCC1 [Reference Example 145, N-[[1-[[(Phenylmethoxy)carbonyl]amino]cyclohexyl]carbonyl]-L-norleucinal] (Cbz-[Ac6c]-[Nle]-aldehyde) | 50 | 35
CCCC[C@@H](C=O)NC(=O)C1(NC(=O)N2CCOCC2)CCCCC1 [Reference Example 147, N-[[1-[(4-Morpholinylcarbonyl)amino]cyclohexyl]carbonyl]-L-norleucinal] ({Morpholide-CO}-[Ac6c]-[Nle]-aldehyde) | 21 | 12
CC(C)C[C@H](NC(=O)OCc1ccccc1)C(=O)N[C@H](C=O)C(C)C [Reference Example 148, N—[N-[(Phenylmethoxy)carbonyl]-L-leucyl]-L-valinal] (Cbz-Leu-Val-aldehyde) | 74 | 58
CCCC[C@@H](C=O)NC(=O)[C@H](CC(C)C)NC(=O)N1CCOCC1 [Reference Example 150, N—[N-(4-Morpholinylcarbonyl)-L-leucyl]-L-norleucinal] | 7.3 | 4.3
CCCC[C@@H](C=O)NC(=O)[C@H](CC(C)C)NC(=O)OCc1ccccc1 [Reference Example 149, N—[N-[(Phenylmethoxy)carbonyl]-L-leucyl]-L-norleucinal] | 15 | 11
CC(C)C[C@H](NC(=O)c1ccco1)C(=O)N[C@H](C=O)C(C)C [Reference Example 151, N—[N-(2-Furanylcarbonyl)-L-leucyl]-L-valinal] | 35 | 30
